For assay [1], the target named is T1, Beta-secretase 1 (Homo sapiens, UniProt P56817). Briefly: Inhibition of BACE1 at 50 uM after 2 hrs by FRET assay.
Assay [2] deals with T1, Beta-secretase 1.
Description: Inhibition of BACE1 after 2 hrs by FRET assay

In ChEMBL document CHEMBL1165911, “Elaborate ligand-based pharmacophore exploration and QSAR analysis guide the synthesis of novel pyridinium-based potent beta-secretase inhibitory leads” (Bioorg Med Chem, 2010) one finds inhibition and IC50 data, which are given here for 32 compounds.

Structures are written as SMILES. Square brackets hold non-standard residues; d marks the D form. Peptide text beside a SMILES is read from it. * marks the point of attachment. ξ: configuration not given here. Cbz = O=C(OCc1ccccc1)*; ξV = CC(C)C(N)C(=O)O

T1 sequence (P56817 whole entry): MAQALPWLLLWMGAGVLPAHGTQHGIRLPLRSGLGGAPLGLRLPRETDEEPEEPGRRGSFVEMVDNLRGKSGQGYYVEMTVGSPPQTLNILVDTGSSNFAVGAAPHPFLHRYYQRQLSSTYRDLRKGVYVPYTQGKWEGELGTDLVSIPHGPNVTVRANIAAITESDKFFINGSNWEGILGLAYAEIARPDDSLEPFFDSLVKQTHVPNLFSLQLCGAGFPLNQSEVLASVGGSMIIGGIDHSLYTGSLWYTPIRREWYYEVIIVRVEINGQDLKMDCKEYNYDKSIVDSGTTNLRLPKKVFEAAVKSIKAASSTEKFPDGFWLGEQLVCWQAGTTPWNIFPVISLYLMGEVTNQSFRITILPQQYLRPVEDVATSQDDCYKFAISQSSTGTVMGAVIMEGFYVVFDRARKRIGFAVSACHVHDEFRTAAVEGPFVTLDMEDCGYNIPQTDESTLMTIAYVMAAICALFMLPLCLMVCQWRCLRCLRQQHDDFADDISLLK

A word on the inhibition: it is the change of the read-out against control, counted positive when it falls. A higher inhibition goes with a strong effect. For `O=C(C[n+]1cccc(C(=O)NCCc2ccccc2)c1)Nc1cccc(NC(=O)c2ccccc2)c1`, the inhibition on Beta-secretase 1 [1] amounted to 55%. With `Cc1ccc(S(=O)(=O)Nc2cccc(NC(=O)C[n+]3cccc(C(N)=O)c3)c2)cc1`, the inhibition at Beta-secretase 1 [1] was 4%.

Regarding `COc1ccc(NS(=O)(=O)c2cccc(NC(=O)C[n+]3ccccc3)c2)cc1`, the inhibition at Beta-secretase 1 [1] was 50%.

Take `COc1ccc(NC(=O)c2cccc(NC(=O)C[n+]3cccc(C(=O)NCCc4ccccc4)c3)c2)cc1`: the inhibition at Beta-secretase 1 [1] is 44%. The same measure, in the same setting: the figure for `Cc1ccc(NC(=O)c2cccc(NC(=O)C[n+]3cccc(C(N)=O)c3)c2)cc1` is 69%; for `Cc1ccc(S(=O)(=O)Nc2cccc(NC(=O)C[n+]3cccc(C(=O)NCCc4ccccc4)c3)c2)cc1` it is 36%; for `Cc1cccc(NC(=O)c2cccc(NC(=O)C[n+]3cccc(C(=O)NCCc4ccccc4)c3)c2)c1` it is 58%. The same measure, in the same setting: the result for `Cc1cccc(NC(=O)c2cccc(NC(=O)C[n+]3ccccc3)c2)c1` reads 61%. One may read the IC50 as the concentration that gives 50% inhibition. Lower therefore signals higher potency. Take `NC(=O)c1ccc[n+](CC(=O)Nc2cccc(NC(=O)c3ccccc3)c2)c1`: the 50% inhibitory concentration (IC50) at Beta-secretase 1 [2] came to 44.7 µM. Besides, on Beta-secretase 1 [1], the inhibition came to 54%.

In the case of `Cc1ccc(C(=O)Nc2cccc(NC(=O)C[n+]3cccc(C(N)=O)c3)c2)cc1`, the inhibition on Beta-secretase 1 [1] came out at 24%. On Beta-secretase 1 [2], `COc1cccc(C(=O)OCC(=O)NCc2ccc(Cl)cc2Cl)c1O` registered an IC50 of 500 µM. Take `Cc1ccc(Nc2nc(N/N=C/c3cccc(Br)c3)nc(N3CCOCC3)n2)cc1`: half-maximal inhibition against Beta-secretase 1 [2] (IC50) required 100 µM.

On to `NC(=O)c1ccc[n+](CC(=O)Nc2cccc(C(=O)Nc3ccc(Cl)cc3)c2)c1`, for which the midpoint of inhibition against Beta-secretase 1 [2], the IC50, lay at 30.2 µM. Also, the inhibition against Beta-secretase 1 [1] was 64%. Take `CCc1ccc(N2C(=O)Nc3ccc(Br)cc3C2(O)C(=O)NCc2ccccc2)cc1` (centres undefined): at Beta-secretase 1 [2], the IC50 came out at 100 µM.

The compound `Cc1cccc(N(C)S(=O)(=O)c2ccc3ncc(C(=O)NCCN4CCOCC4)c(O)c3c2)c1` came in with an IC50 against Beta-secretase 1 [2] of 100 µM. As to `CN(C)c1nc(N/N=C/c2cc(I)cc(I)c2O)nc(N2CCOCC2)n1`, on Beta-secretase 1 [2], half-maximal inhibition (IC50) was put at 100 µM. Compound `Cc1cccc(NC(=O)c2cccc(NC(=O)C[n+]3cccc(C(N)=O)c3)c2)c1` gave an inhibition against Beta-secretase 1 [1] of 44%. On to `COc1cc2[nH]c(=O)n(Cc3ccc(C(=O)NCc4ccc(C)cc4)cc3)c(=O)c2cc1OC`, for which the IC50 on Beta-secretase 1 [2] is 100 µM. In turn, `C[C@H](NC(=O)c1cc(OCC(=O)NCCCCCN)cc(OS(=O)(=O)Cc2ccccc2)c1)c1ccccc1` had an IC50 on Beta-secretase 1 [2] of 100 µM. For the compound `O=C(C[n+]1ccccc1)Nc1cccc(NC(=O)c2ccccc2)c1`, on Beta-secretase 1 [1], the inhibition came out at 51%. In turn, `Cc1ccc(NC(=O)c2cccc(NC(=O)C[n+]3ccccc3)c2)cc1` gave an inhibition against Beta-secretase 1 [1] of 42%.

As for `C[C@@H](NC(=O)c1cc(C(=O)N[C@@H](Cc2ccccc2)[C@H](O)CNC(C)(C)C)cc(N(C)S(C)(=O)=O)c1)c1ccc(F)cc1`, the IC50 against Beta-secretase 1 [2] was determined as 15 µM.

At Beta-secretase 1 [2], `O=C(O)c1cccc(-c2ccc(/C=N/Nc3nc(Nc4ccccc4)nc(N4CCCCC4)n3)o2)c1` came in with an IC50 of 100 µM. Still for that read-out and setting: the figure for `Cc1ccc(NC(=O)c2cc(NC(=O)CCCC(=O)O)ccc2N2CCOCC2)cc1` is 500 µM. Same read-out and setting: the result for `COc1ccc(C(=O)Nc2ccccc2C(=O)NC(CCSC)C(=O)NNC(=O)Sc2nc3ccccc3s2)cc1` (centres undefined) reads 50 µM. On to `COc1ccc(NS(=O)(=O)c2cccc(NC(=O)C[n+]3cccc(C(N)=O)c3)c2)cc1`, for which the inhibition on Beta-secretase 1 [1] is 34%.

`CC1CCN(S(=O)(=O)c2ccc3[nH]c(=O)cc(C(=O)NCCCN4CCCC4)c3c2)CC1` displayed an IC50 on Beta-secretase 1 [2] of 100 µM. `CCNC[C@@H](O)[C@H](Cc1ccccc1)NC(=O)c1cc(C(=O)N[C@H](C)c2ccc(F)cc2)cc(N(C)S(C)(=O)=O)c1`: it took 15 µM to reach half-maximal inhibition at Beta-secretase 1 [2] (IC50). On Beta-secretase 1 [2], `NS(=O)(=O)c1ccc(CCNC(=O)CCc2nc3sc4c(c3c(=O)[nH]2)CCCC4)cc1` registered an IC50 of 100 µM. The same measure, in the same setting: the result for `CC1CCCCN1CCNC(=O)c1cc(=O)[nH]c2ccc(S(=O)(=O)N3CCCCC3)cc12` (centres undefined) reads 100 µM. Still for that read-out and setting: the result for `CC(C)C(NC(=O)CNC(=O)CNC(=O)OCc1ccccc1)C(=O)O` (stereo not drawn) (Cbz-Gly-Gly-[ξV]-OH) reads 500 µM. On to `COc1ccc(OC)c(/N=c2\oc3c(C)ncc(CO)c3cc2C(=O)Nc2ccc(Cl)cc2)c1`, for which the IC50 on Beta-secretase 1 [2] was found to be 100 µM.
